Experimental data published in US20240245856A1, “Electromechanical Devices for the Burst Release of Indefinitely Stable Dry Powder Drugs” (Massachusetts Institute of Technology, priority 2023, published 2024).
Like-named read-outs stand apart in the source and are kept apart here.

How the values were obtained:
healthy C57/BL6J mice = conditions: for time after release at which increase in BG is evident / time after release at which increase in HR is evident: 1 mg pill, 5%-95% Epinephrine-Lactose, subcutaneous, mice
Experimental: To test this, studies with epinephrine, a naturally occurring circulating neurotransmitter hormone produced by the adrenal medulla, were performed and used as emergency medication in the treatment of anaphylaxis, cardiac arrest, asthma, and hypotension. Epinephrine release targets adrenergic receptors is accompanied by increases in heart rate (HR).
In vivo epinephrine release involved studies on anesthetized adult, male, healthy C57/BL6J mice. Mice were implanted with emergency rescue devices containing epinephrine doses of 1.4 mg/kg via the surgical procedures described above and allowed to recover for a 3-day period. On day 3, mice were carefully anesthetized via the flow of 1% isoflurane, and hair around the dorsal neck region was removed via the application of a depilatory cream (e.g., Nair). A collar-mounted optical probe (e.g., a MouseOx, Starr Life Science, Oakmont, PA) was then used to track heart rate. Additional biomarkers measured by the probe included oxygen saturation (SpO2), pulse-width distension (a measure of blood flow) and breath rate. Animals were monitored until their heart rate reached steady values of 380-400 bpm. A primary transmitter antenna was then brought into close proximity for 2-5 minutes to induce wireless release. Anesthetized animals were then monitored via optical probe measurements for 30 minutes, followed by euthanasia and explantation to evaluate opening and drug dissolution.

[1] = In vivo IVIS fluorescence imaging of release from subcutaneously implanted device; set-up: species or system mice; conditions: for biodistribution (IVIS imaging of major organs): organs imaged 40 minutes after subcutaneous release
Experimental: Imaging studies with fluorescently labeled lyophilized insulin-dye conjugates (Ins-Cy7) validate burst release in vivo, over timescales of about 10 minutes. Devices (e.g., device 100) were implanted in subcutaneous sites, with release apertures 171 facing into muscle beds (the complete surgical implantation procedure is disclosed below).
An equivalent set of studies with glucagon conjugated with cy7 (GCG-cy7) reveal similar release profiles as illustrated in FIG. 5A with strong fluorescence visible within the first 20 minutes following release. […] As shown herein, dry-powder injection directly into subcutaneous sites may function as a mechanism to both maintain long-term drug stability and ensure rapid action following release.
Animals were anesthetized via isoflurane and placed in an in vivo imaging system (IVIS). Baseline fluorescent measurements tuned to emission peaks of cy7 (exposure time 3 seconds, 640 nm<wavelength<840 nm) established pre-release fluorescence profiles. A primary antenna placed in close proximity to the device for about 1 minute induced wireless drug release. Sequential imaging following release at intervals of about 5 minutes then allowed for imaging of fluorescence signals resulting from drug dissolution and diffusion. […]

[2] = HPLC drug dissolution testing of glucagon pills in PBS; format: physicochemical; conditions: 37° C., across a range of loading fractions
Source text: Capabilities in closed-loop burst release enabled by wireless communication between commercially available biosensors and emergency rescue devices represent a feature of this technology. One example is the combination of glucagon release with CGM technology for fully closed-loop glucose-responsive hypoglycemic rescue during periods of sleep or hypoglycemia unawareness and in pediatric patients who are unable to self-administer glucagon. […] Benchtop testing in a physiological mimic glucose solution was also performed. […]
Several known concentrations of glucagon (x, unit μM) were tested with the HPLC and the corresponding absorbance peak areas (y, A.U.) were measured. […] This equation yields glucagon concentrations of testing solutions at different time points via measurements of absorbance peak areas. […]
HPLC was performed under the following conditions using an Agilent InfinityLab Poroshell 120 (EC-C18, 4.6 mm×100 mm, 2.7 μm particle size) at 25° C., using 0.1% formic acid in water (solvent A) and acetonitrile (solvent B) at 0.6 ml/min. […] Glucagon UV absorption was monitored at 280 nm with retention time (Rt)=19.2 min.

[3] = tested on: C57/BL6 mice with chemically induced diabetes via Streptozotocin (STZ); assay: Post-fasting glucagon release in diabetic mice (blood glucose); format: in vivo; conditions: glucagon release studies in diabetic mice
Experimental: In an initial set of experiments (results shown in FIG. 5C) mice were fasted to induce mild hypoglycemia baseline BG 113±1.9 mg dl^−1). Wireless release is triggered at time t=0 minutes by placing the awake, freely moving mice in a modified enclosure capable of providing wireless power at 13.56 MHz. Successive measurements then reveal a rapid rise in BG measurements relative to baselines, with a peak value ([…]) occurring at tmax=15 minutes following release. […] Following release, explantation confirmed complete opening and dissolution of the pills (FIG. 22).
0.5 μl volumes of blood were collected via tail-pricks with 25-27G and measured with a commercial handheld blood glucose meter (e.g., a Clarity, BG1000). The upper limit of measurements is 600 mg/dl on these systems and values above this were recorded as 600 mg/dl for analysis. Non-fasting values were recorded for 7-10 days following implantation, after which BG values were recorded following a 2.5 hour fast. Mice were weighed before and after fasting periods. Measurements in experimental groups (O2, Non O2 controls) were recorded in triplicate to account for any variability in readings and averaged.
(i) Post-fasting studies: These studies were performed […] after device implantation in STZ-induced diabetic BL6 mice. […] BG values recorded immediately following release served as t=0 minutes measurements. […]

[4] = cited from earlier work
[5] = tested on: blood glucose concentrations; conditions: administration for acute hypoglycemia; cited from earlier work
[6] = 30 minutes after release, 1 mg pill 5%-95% Epinephrine-Lactose, n=3

Compound: CNC[C@H](O)c1ccc(O)c(O)c1 [Epinephrine]
- time after release at which increase in BG is evident (healthy C57/BL6J mice): ≤ 10 min
- time after release at which increase in HR is evident (healthy C57/BL6J mice): ≤ 10 min
- time after release at which increase in BG is evident (healthy C57/BL6J mice; listed as epinephrine): ≤ 5 min
- time after release at which increase in HR is evident (healthy C57/BL6J mice; listed as epinephrine): ≤ 5 min
- ΔBG (healthy C57/BL6J mice; [6]): 66 ± 23 mg/dL
- ΔHR (healthy C57/BL6J mice; [6]): 140±33 bpm
- correlation of other biomarkers (heart rate, SpO2, pulse-width distension) with release (healthy C57/BL6J mice; pills at 0.3 mg/kg and 1.5 mg/kg versus sham implants): weak correlation

Compound: GCG-cy7: glucagon conjugated with cy7; 1-mg glucagon-lactose (4%-96% by weight) pill labeled with fluorescent dye
- biodistribution (IVIS imaging of major organs) [1]: confinement to liver site
- time after release at which strong fluorescence is visible ([1]; release 2 days after subcutaneous implantation): ≤ 20 min

Compound: Ins-Cy7: fluorescently labeled lyophilized insulin-dye conjugates; 1 mg Insulin-cy7-Lactose (4%-96% by weight) pills
- fluorescence before wireless release ([1]; implanted sealed device, until release 7 days after implantation): no detectable fluorescence
- biodistribution (IVIS imaging of major organs) [1]: confined to the liver
- timescale of burst release in vivo ([1]; subcutaneous device, mice, IVIS): about 10 minutes
- time after release at which fluorescence is detectable ([1]; subcutaneous site, release on day 7): ≤ 5 min
- increase in local fluorescence intensity (ROI) ([1]; within the first 15 minutes following release, n=3 mice): roughly tenfold

Compound: glucagon
- dissolution of dry powder drug (HPLC) [2]: rapid dissolution
- time to increase in blood glucose after release [3]: < 10 min
- stability in solution [4]: < 1 days
- time to increase in blood glucose concentrations [5]: < 10 min
